Laboratory results taken from patent US9302999B2, “Substituted triazoles as herbicides” (E. I. DU PONT DE NEMOURS AND COMPANY, priority 2012, dated 2016).

Columns and labels:
Type in all cases: in vivo
[1] = test system: barnyardgrass (Echinochloa crus-galli); assay: Test A pre-/postemergence: barnyardgrass
Summary of the method: (§1)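 Injury is scored visually on a scale where 0 means no effect and 100 complete control, comparing treated with untreated plants after approximately ten greenhouse days. Both preemergence and postemergence applications are made at the same time.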

[2] = test system: foxtail, giant (giant foxtail, Setaria faberii); assay: Test A pre-/postemergence: foxtail, giant
Summary of the method: as §1

[3] = test system: pigweed (Amaranthus retroflexus); assay: Test A pre-/postemergence: pigweed
Summary of the method: as §1

[4] = test system: velvetleaf (Abutilon theophrasti); assay: Test A pre-/postemergence: velvetleaf
Summary of the method: as §1

[5] = test system: blackgrass (Alopecurus myosuroides); assay: Test C pre-/postemergence: blackgrass
Summary of the method: (§2)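 Visual injury scored 0–100 (100 = complete control) against untreated controls after 13–15 greenhouse days. Surfactant-containing solvent formulations applied either to soil after sowing (loam/sand) or over 1- to 4-leaf plants, 2–18 cm tall.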

[6] = test system: winter wheat (Triticum aestivum); assay: Test C pre-/postemergence: winter wheat
Summary of the method: as §2

wild oat (Avena fatua) = assay: Test C pre-/postemergence: wild oat; settings: Postemergence
Summary of the method: as §2

corn (Zea mays) = assay: Test C pre-/postemergence: corn
Summary of the method: as §2

[7] = test system: lambsquarters (Chenopodium album); assay: Test C pre-/postemergence: lambsquarters
Summary of the method: as §2

[8] = test system: morningglory (Ipomoea coccinea); assay: Test C pre-/postemergence: morningglory
Summary of the method: as §2

[9] = test system: nutsedge, yellow (yellow nutsedge, Cyperus esculentus); assay: Test C pre-/postemergence: nutsedge, yellow
Summary of the method: as §2

[10] = test system: chickweed (common chickweed, Stellaria media); assay: Test C postemergence: chickweed
Summary of the method: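 Seedlings are raised in pots of peat-based medium to 2–18 cm (1- to 4-leaf stage). The formulated compound is then applied postemergence. Plants stay in the greenhouse for 13 to 15 days and are rated visually against controls, where 0 means no effect and 100 complete control.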

[11] = Postemergence, 125 g ai/ha, 0 to 100 scale, 0 is no effect, 100 is complete control
[12] = Postemergence, 500 g ai/ha, 0 to 100 scale, 0 is no effect, 100 is complete control
[13] = Preemergence, 125 g ai/ha, 0 to 100 scale where 0 is no effect and 100 is complete control
[14] = Preemergence, 500 g ai/ha, 0 to 100 scale (0 no effect, 100 complete control)
[15] = Postemergence, 31 g ai/ha, scale 0 to 100 (0 no effect, 100 complete control)
[16] = Postemergence, 62 g ai/ha, scale 0 to 100 (0 no effect, 100 complete control)
[17] = Postemergence, 125 g ai/ha, scale 0 to 100, 0 no effect, 100 complete control
[18] = Postemergence, 250 g ai/ha, scale 0 to 100
[19] = Preemergence, 31 g ai/ha, scale 0 (no effect) to 100 (complete control)
[20] = Preemergence, 62 g ai/ha, scale of 0 to 100, 0 is no effect, 100 is complete control
[21] = Preemergence, 125 g ai/ha, scale 0 to 100, 0 no effect, 100 complete control
[22] = Preemergence, 250 g ai/ha, scale 0 to 100, 0 no effect, 100 complete control
[23] = 31 g ai/ha, scale 0 to 100 (0 no effect, 100 complete control)
[24] = 62 g ai/ha, scale 0 to 100 (0 no effect, 100 complete control)
[25] = 125 g ai/ha, scale 0 to 100, 0 no effect, 100 complete control
[26] = Postemergence, 250 g ai/ha, scale 0 to 100 (0 no effect, 100 complete control)

## CCc1nn(-c2ccc(F)cc2)nc1Oc1ccnc(C(F)(F)F)c1 [Compound 166]
[1]; [11]
  Plant response rating, Barnyardgrass: 70
[1]; [12]
  Barnyardgrass plant response rating: 90
[1]; [13]
  Plant response rating, Barnyardgrass: 90
[1]; [14]
  Plant response rating, Barnyardgrass: 100
[2]; [11]
  Plant response rating, Foxtail, Giant: 90
[2]; [12]
  Foxtail, Giant plant response rating: 90
[2]; [13]
  Plant response rating, Foxtail, Giant: 100
[2]; [14]
  Plant response rating, Foxtail, Giant: 100
[3]; [11]
  Plant response rating, Pigweed: 100
[3]; [12]
  Pigweed plant response rating: 100
[3]; [13]
  Plant response rating, Pigweed: 100
[3]; [14]
  Plant response rating, Pigweed: 100
[4]; [11]
  Plant response rating, Velvetleaf: 80
[4]; [12]
  Velvetleaf plant response rating: 100
[4]; [13]
  Plant response rating, Velvetleaf: 30
[4]; [14]
  Plant response rating, Velvetleaf: 70
[5]; [15]
  Plant response rating, Blackgrass: 10
[5]; [16]
  Plant response rating, Blackgrass: 20
[5]; [17]
  Plant response rating, Blackgrass: 40
[5]; [18]
  Plant response rating, Blackgrass: 60
[5]; [19]
  Plant response rating, Blackgrass: 15
[5]; [20]
  Plant response rating, Blackgrass: 90
[5]; [21]
  Plant response rating, Blackgrass: 90
[5]; [22]
  Plant response rating, Blackgrass: 95
[6]; [15]
  Plant response rating, Wheat: 5
[6]; [16]
  Plant response rating, Wheat: 5
[6]; [17]
  Plant response rating, Wheat: 5
[6]; [18]
  Plant response rating, Wheat: 10
[6]; [19]
  Plant response rating, Wheat: 0
[6]; [20]
  Plant response rating, Wheat: 0
[6]; [21]
  Plant response rating, Wheat: 5
[6]; [22]
  Plant response rating, Wheat: 15
Wild oat (Avena fatua); [23]
  Plant response rating, Oat, Wild: 15
Wild oat (Avena fatua); [24]
  Plant response rating, Oat, Wild: 20
Wild oat (Avena fatua); 250 g ai/ha, scale 0 to 100
  Plant response rating, Oat, Wild: 30
Corn (Zea mays); [15]
  Plant response rating, Corn: 15
Corn (Zea mays); [16]
  Plant response rating, Corn: 15
Corn (Zea mays); [17]
  Plant response rating, Corn: 15
Corn (Zea mays); [18]
  Plant response rating, Corn: 15
Corn (Zea mays); [19]
  Plant response rating, Corn: 0
Corn (Zea mays); [21]
  Plant response rating, Corn: 5
Corn (Zea mays); [22]
  Plant response rating, Corn: 20
[7]; [15]
  Plant response rating, Lambsquarters: 60
[7]; [16]
  Plant response rating, Lambsquarters: 95
[7]; [17]
  Plant response rating, Lambsquarters: 95
[7]; [18]
  Plant response rating, Lambsquarters: 98
[8]; [15]
  Plant response rating, Morningglory: 30
[8]; [16]
  Plant response rating, Morningglory: 30
[8]; [17]
  Plant response rating, Morningglory: 35
[8]; [18]
  Plant response rating, Morningglory: 65
[8]; [20]
  Plant response rating, Morningglory: 10
[8]; [21]
  Plant response rating, Morningglory: 25
[8]; [22]
  Plant response rating, Morningglory: 45
[9]; [15]
  Plant response rating, Nutsedge, Yellow: 0
[9]; [16]
  Plant response rating, Nutsedge, Yellow: 5
[9]; [17]
  Plant response rating, Nutsedge, Yellow: 5
[9]; [18]
  Plant response rating, Nutsedge, Yellow: 10
[9]; [19]
  Plant response rating, Nutsedge, Yellow: 0
[9]; [20]
  Plant response rating, Nutsedge, Yellow: 0
[9]; [21]
  Plant response rating, Nutsedge, Yellow: 5
[9]; [22]
  Plant response rating, Nutsedge, Yellow: 15
[10]; [23]
  Plant response rating, Chickweed: 55
[10]; [24]
  Plant response rating, Chickweed: 90
[10]; [25]
  Plant response rating, Chickweed: 90
[10]; 250 g ai/ha, scale 0 to 100
  Plant response rating, Chickweed: 90

## CCCc1nn(-c2ccc(C(F)(F)F)c(F)c2)nc1Oc1ccnc(C(F)(F)F)c1 [Compound 185]
[1]; [11]
  Plant response rating, Barnyardgrass: 70
[1]; [12]
  Barnyardgrass plant response rating: 90
[1]; [13]
  Plant response rating, Barnyardgrass: 100
[1]; [14]
  Plant response rating, Barnyardgrass: 100
[2]; [11]
  Plant response rating, Foxtail, Giant: 90
[2]; [12]
  Foxtail, Giant plant response rating: 90
[2]; [13]
  Plant response rating, Foxtail, Giant: 100
[2]; [14]
  Plant response rating, Foxtail, Giant: 100
[3]; [11]
  Plant response rating, Pigweed: 100
[3]; [12]
  Pigweed plant response rating: 100
[3]; [13]
  Plant response rating, Pigweed: 100
[3]; [14]
  Plant response rating, Pigweed: 100
[4]; [11]
  Plant response rating, Velvetleaf: 100
[4]; [12]
  Velvetleaf plant response rating: 100
[4]; [13]
  Plant response rating, Velvetleaf: 90
[4]; [14]
  Plant response rating, Velvetleaf: 100
[5]; [15]
  Plant response rating, Blackgrass: 20
[5]; [16]
  Plant response rating, Blackgrass: 40
[5]; [17]
  Plant response rating, Blackgrass: 50
[5]; [18]
  Plant response rating, Blackgrass: 50
[5]; [19]
  Plant response rating, Blackgrass: 90
[5]; [20]
  Plant response rating, Blackgrass: 95
[5]; [21]
  Plant response rating, Blackgrass: 95
[5]; [22]
  Plant response rating, Blackgrass: 98
[6]; [15]
  Plant response rating, Wheat: 5
[6]; [16]
  Plant response rating, Wheat: 15
[6]; [17]
  Plant response rating, Wheat: 15
[6]; [26]
  Plant response rating, Wheat: 20
[6]; [19]
  Plant response rating, Wheat: 10
[6]; [20]
  Plant response rating, Wheat: 40
[6]; [21]
  Plant response rating, Wheat: 40
[6]; [22]
  Plant response rating, Wheat: 55
Wild oat (Avena fatua); [23]
  Plant response rating, Oat, Wild: 25
Wild oat (Avena fatua); [24]
  Plant response rating, Oat, Wild: 30
Wild oat (Avena fatua); [25]
  Plant response rating, Oat, Wild: 55
Wild oat (Avena fatua); 250 g ai/ha, scale 0 to 100 (0 no effect, 100 complete control)
  Plant response rating, Oat, Wild: 60
Corn (Zea mays); [15]
  Plant response rating, Corn: 15
Corn (Zea mays); [16]
  Plant response rating, Corn: 20
Corn (Zea mays); [17]
  Plant response rating, Corn: 25
Corn (Zea mays); [18]
  Plant response rating, Corn: 25
Corn (Zea mays); [19]
  Plant response rating, Corn: 5
Corn (Zea mays); [20]
  Plant response rating, Corn: 5
Corn (Zea mays); [21]
  Plant response rating, Corn: 35
Corn (Zea mays); [22]
  Plant response rating, Corn: 35
[7]; [15]
  Plant response rating, Lambsquarters: 80
[7]; [16]
  Plant response rating, Lambsquarters: 80
[7]; [17]
  Plant response rating, Lambsquarters: 85
[7]; [26]
  Plant response rating, Lambsquarters: 95
[7]; [19]
  Plant response rating, Lambsquarters: 100
[7]; [20]
  Plant response rating, Lambsquarters: 100
[7]; [21]
  Plant response rating, Lambsquarters: 100
[7]; [22]
  Plant response rating, Lambsquarters: 100
[8]; [15]
  Plant response rating, Morningglory: 90
[8]; [16]
  Plant response rating, Morningglory: 98
[8]; [17]
  Plant response rating, Morningglory: 100
[8]; [26]
  Plant response rating, Morningglory: 100
[8]; [19]
  Plant response rating, Morningglory: 45
[8]; [20]
  Plant response rating, Morningglory: 55
[8]; [21]
  Plant response rating, Morningglory: 70
[8]; [22]
  Plant response rating, Morningglory: 100
[9]; [15]
  Plant response rating, Nutsedge, Yellow: 10
[9]; [16]
  Plant response rating, Nutsedge, Yellow: 10
[9]; [17]
  Plant response rating, Nutsedge, Yellow: 10
[9]; [26]
  Plant response rating, Nutsedge, Yellow: 15
[9]; [19]
  Plant response rating, Nutsedge, Yellow: 0
[9]; [20]
  Plant response rating, Nutsedge, Yellow: 0
[9]; [21]
  Plant response rating, Nutsedge, Yellow: 0
[9]; [22]
  Plant response rating, Nutsedge, Yellow: 5
[10]; [23]
  Plant response rating, Chickweed: 70
[10]; [24]
  Plant response rating, Chickweed: 85
[10]; [25]
  Plant response rating, Chickweed: 95
[10]; 250 g ai/ha, scale 0 to 100
  Plant response rating, Chickweed: 95
